The values that follow come from patent US20160139120A1 (The Trustees of Columbia University in the City of New York, priority 2013, published 2016).

One data set addresses T1, RAGE-C1q binding (Homo sapiens, UniProt P02745+P02746+P02747).
T1 construct: Three forms of human sRAGE, the extracellular domain of the receptor, were utilized; made in house; host or cells: Sf9 insect cells (baculovirus)
Nature of the data set: ELISA-like C1q-sRAGE binding assay in presence of test substance. As to conditions: for ability of known RAGE ligands to block C1q binding to immobilized sRAGE: data not shown; for effect on C1q binding to immobilized sRAGE (RAGE-C1q interaction): 0-2 mM compound with 2 μg/ml C1q, 2 h. As for the experimental part:
“+” and “−” in (B) and (C) indicate whether the C1q was preincubated with monoclonal antibody or not, respectively. Results in (B) and (C) were mean±SD of three independent experiments. *p<0.01 in pair comparison indicated in the graph.
The final peroxidase activity was monitored at 492 nm with o-phenylenediamine dihydrochloride and hydrogen peroxide as substrates. […] Remaining binding sites were blocked with 5% non-fat milk in PBS. […] ECL Western blot detection kit was used to visualize the binding.
(An ELISA detects its analyte on a solid surface through an enzyme-linked reagent.)

The subject of a further data set is complement system. As to the kind of experiment: Complement activation assay (C3a formation in human serum). Format: biochemical. The procedure: Complement activation was monitored as C3a formation from proteolytic cleavage of C3 by ELISA kit.
C3a was assayed by ELISA kit.
Two different forms of each protein were tested, one was immobilized and the other was free molecule in serum (dissolved). For immobilized forms, 96-well MaxiSorp plate was coated with 50 μg/ml of each protein and blocked with BSA. Complement activation was performed as in (A).
After 1 h incubation, C3a levels in the human serum were determined as a marker of complement activation with human C3a EIA kit according to the manufacturer's instructions.

Data set [1] deals with U937 cells. Nature of the data set: Monocyte adhesion: U937 cells to C1q-coated plate. Type of data set: cell-based, human. As to conditions: 2 mM in medium, 24 h. As for the experimental part:
U-937 cells (2×10^5/ml) cultured in RPMI medium containing 10% fetal bovine serum, 100 units/ml of penicillin and 100 μg/ml of streptomycin were incubated with 100 nM of D3 and 2 ng/ml of TGF-β at 37° C. in a 5% CO2 incubator for 24 hours. After washing twice with serum-free RPMI medium, U-937 cells were suspended at concentration of 2×10^5/ml in serum-free RPMI medium containing 0 or 100 μg/ml of chicken anti-human RAGE IgY or 20 μg/ml of F(ab′)2 of mouse anti-human CD11b IgG1. As controls, 100 μg/ml of chicken anti-AGE IgY and 100 μg/ml of mouse IgG1 isotype control were used. […] The cells were cultured for 24 hours, then 50 μl of serum-free RPMI medium containing 15 μM of Calcein AM was added into each well to label U-937 cells with fluorescence for 1 hour. After three gentle washes with Hanks' balanced salt solution, the attached U-937 cells were photographed with regular light and fluorescent light, as shown in panel A. To quantitatively measure cell attachment, the plate was read with fluorescence plate reader with excitation at 485 nm and emission at 530 nm, as shown in panel B. The p value was calculated by student T-test with at least 4 samples for each condition. […]
(A) ARPE-19RAGE cells expressed high level of RAGE protein. Ten micrograms of total proteins from ARPE-19, ARPE-19RAGE and RAGE-transfected C6 cells (C6-RAGE) were analyzed for RAGE expression by Western blot. […]

The next data set relates to U-937 cells. As to the kind of experiment: Cytotoxicity and activation/differentiation test on U-937 cells. Type of data set: cell-based, human. An excerpt: Phenolphthalein bisphosphate has been used in bacteria culture media as phosphatase substrate. […] Phagocytes are major protective cells in the body by ingesting harmful foreign particles, bacteria, and dead or dying cells. In an in vivo abdominal sepsis model caused by intraperitoneally injection with Escherichia coli, RAGE was involved in defense against the growth and/or dissemination of E. coli (The Journal of Infectious Diseases 2009, 200:765-773). In the presence of RAGE, E. coli numbers were much lower in the injection site as well as in major organs of the mouse. With the help of phenolphthalein bisphosphate, we expect that RAGE's function in this sepsis model could be enhanced further.

Data set [2] deals with RAGE-overexpressing cells. As to the kind of experiment: Steady state binding of free C1q to RAGE-overexpressing cells. Format: cell-based, human. The following applies: data not shown. An excerpt: RAGE expression was compared with another RAGE over-expressing cell line C6-RAGE, generated from rat astroglial C6 (Taguchi, 2000), with the result shown in FIG. 15A.
FIG. 10E was used (data not shown). […] The results using rat native serum with RAGE-transfected C6 cells produced similarly unremarkable results (results not shown).

Another data set addresses T2, Mac-1 (Homo sapiens, UniProt P05107+P11215).
T2 construct: purchased R&D Systems 4047-AM
Nature of the data set: Pull-down of sRAGE and C1q by immobilized Mac-1. Format: binding. The following applies: ½ PBS. As for the experimental part: The plate was cooled down on ice for 10 min and washed quickly three-times with cold ½ PBS. […] Stripping of Western blot membranes was performed with buffer from Pierce according to the manufacturer's instructions.

Data set [3] deals with U937 cells. As to the kind of experiment: Phagocytosis of apoptotic Jurkat cells by differentiated U937 cells (FACS). Format: cell-based, human. As to conditions: with addition of C1q; basal level 47%.
Protocol: (A) Representative dot-plots of different cell populations separated by FACS after 2 h phagocytosis of apoptotic Jurkat cells: top-left U937 cells without phagocytosis; top-right phagocytic U937 cells labeled with percentage of total U937 population; bottom-right apoptotic Jurkat cells. (B) FACS analysis of phagocytosis of apoptotic Jurkat cells and effect of anti-RAGE and anti-CD11b antibodies. […] Results in (B) and (D) were mean±SD of three independent experiments. *p<0.01 in pair comparison indicated in the graph.
U937 cells (2×10^5/ml) were differentiated in standard medium containing 100 nM of vitamin D3 and 2 ng/ml of TGF-β1 at 37° C. in a 5% CO2 incubator for 2 days, with refreshment of vitamin D3 and TGF-β1 at 24 h. Differentiated U937 cells were harvested and re-suspended in Hank's Balanced Salt Solution (HESS, containing calcium and magnesium) at 2×10^6/ml, and then labeled with 5 μM of CM-DiI at 37° C. for 20 min. Labeling was ended by washing cells three times with HESS. The resulted cells were re-suspended at 4×10^5/ml in phagocytosis buffer (HESS plus 2 mM MgCl2 and 20 mM glutamate, pH 7.0).
To label Jurkat cells with CFSE (carboxyfluorescein succinimidyl ester), Jurkat cells were incubated with 1 μM of CFDA-SE in HESS for 30 min at 37° C. Harvested cells were resuspended (1×10^6/ml) in HESS containing 1 μM of staurosporine and incubated at 37° C. for 6 h. […]

T1 sequence (P02745 23-245): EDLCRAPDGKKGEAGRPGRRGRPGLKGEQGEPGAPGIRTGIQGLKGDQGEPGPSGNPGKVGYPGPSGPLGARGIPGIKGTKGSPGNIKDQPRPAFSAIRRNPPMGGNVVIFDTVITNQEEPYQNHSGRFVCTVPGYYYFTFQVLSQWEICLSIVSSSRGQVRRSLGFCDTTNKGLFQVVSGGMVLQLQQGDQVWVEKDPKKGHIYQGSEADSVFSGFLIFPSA
T1 sequence (P02746 28-253): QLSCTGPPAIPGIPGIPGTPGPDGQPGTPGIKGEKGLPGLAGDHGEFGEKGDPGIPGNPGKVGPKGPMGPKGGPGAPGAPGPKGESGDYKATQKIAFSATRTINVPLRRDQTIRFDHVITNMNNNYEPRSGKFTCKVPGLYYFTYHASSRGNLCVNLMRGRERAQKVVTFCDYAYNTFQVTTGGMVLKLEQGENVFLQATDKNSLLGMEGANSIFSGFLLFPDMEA
T1 sequence (P02747 29-245): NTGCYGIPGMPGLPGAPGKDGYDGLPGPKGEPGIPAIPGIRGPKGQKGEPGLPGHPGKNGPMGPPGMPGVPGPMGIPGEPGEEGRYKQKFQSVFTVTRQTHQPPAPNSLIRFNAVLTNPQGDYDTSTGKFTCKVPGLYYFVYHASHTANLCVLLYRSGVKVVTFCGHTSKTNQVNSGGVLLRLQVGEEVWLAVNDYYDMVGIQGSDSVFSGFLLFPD
T2 sequence (P05107 23-700 limits assumed, other chains not shown): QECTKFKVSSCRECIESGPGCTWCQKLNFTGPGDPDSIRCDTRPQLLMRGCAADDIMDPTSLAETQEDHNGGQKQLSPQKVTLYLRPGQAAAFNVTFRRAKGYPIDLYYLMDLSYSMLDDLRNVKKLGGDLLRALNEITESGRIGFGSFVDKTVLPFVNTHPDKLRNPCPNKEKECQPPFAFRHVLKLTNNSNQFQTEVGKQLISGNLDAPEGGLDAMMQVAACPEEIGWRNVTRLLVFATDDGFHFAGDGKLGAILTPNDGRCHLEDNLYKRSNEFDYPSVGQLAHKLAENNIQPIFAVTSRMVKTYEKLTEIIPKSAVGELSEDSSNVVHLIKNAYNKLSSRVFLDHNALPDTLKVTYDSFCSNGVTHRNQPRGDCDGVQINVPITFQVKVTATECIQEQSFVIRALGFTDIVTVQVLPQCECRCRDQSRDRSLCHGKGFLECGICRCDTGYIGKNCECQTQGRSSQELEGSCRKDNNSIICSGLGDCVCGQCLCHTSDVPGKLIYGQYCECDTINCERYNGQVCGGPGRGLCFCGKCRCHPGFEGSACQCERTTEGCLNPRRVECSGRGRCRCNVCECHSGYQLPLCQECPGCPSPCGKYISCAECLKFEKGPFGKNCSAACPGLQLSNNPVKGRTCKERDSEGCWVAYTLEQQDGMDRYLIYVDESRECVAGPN

For AGE-BSA: glycated bovine serum albumin, the “ability of known RAGE ligands to block C1q binding to immobilized sRAGE” value (“ability of known RAGE ligands” below) in the data set with RAGE-C1q binding is listed as “unable to block C1q binding to immobilized sRAGE”.

In the case of “Avastin: a humanized IgG1 antibody for VEGF”, in the data set with complement system (at every coating concentration), the “complement activation (C3a) activity relative to sRAGE” value is reported as “about 8 times”.

Consider “amyloid β protein fragment 1-42 [A-beta]”, for which the “ability of known RAGE ligands” value in the data set with RAGE-C1q binding is “unable to block C1q binding to immobilized sRAGE”.

Take `O=C1OC(c2ccc(OP(=O)([O-])[O-])cc2)(c2ccc(OP(=O)([O-])[O-])cc2)c2ccccc21.[Na+].[Na+].[Na+].[Na+]` [phenolphthalein bisphosphate, Phenolphthalein bisphosphate tetrasodium salt]: the “effect of compound on U-937 cells adhesion to C1q-coated plate” value with U937 cells [1] is given as “significantly increase the adherent U-937 cells”; in the data set with U937 cells [1] (listed as Phenolphthalein bisphosphate) it was “Phenolphthalein bisphosphate increased monocytes”. Also, the “effect on C1q binding to immobilized sRAGE (RAGE-C1q interaction)” value is given as “Phenolphthalein bisphosphate enhanced RAGE-C1q” on RAGE-C1q binding and “enhance RAGE-C1q interaction with dose-dependent manor” at RAGE-C1q binding (listed as Phenolphthalein Biphosphate). For the same compound, the “activation or differentiation of U-937 cells” value in the data set with U-937 cells is “couldn't activate or differentiate U-937 cells”. In addition, the cytotoxicity result with U-937 cells (2 mM) is listed as “no cytotoxicity”. Further, in the data set on complement system (1 mM compound, 2 μg sRAGE in 20 μl fresh human serum), the “effect on complement activation of sRAGE” value is on record as “without enhancement on complement activation”.

As for “C1q: human C1q protein (Quidel); first subcomponent of the C1 complex of the classical complement pathway”, the “binding of free C1q to cells” value in data set [2] is recorded as “did not bind”. In the data set with Mac-1, the “pull-down by immobilized Mac-1, proteins incubated separately” value is on record as “pulled down”; the “pull-down by immobilized Mac-1, sRAGE and C1q co-incubated” value is given as “increased”. Also, the “phagocytic U937 cells population, of total U937 cells” value in the data set with U937 cells [3] was 66%.

Consider “Mac-1: recombinant form of human Mac-1 (CD11b/CD18), R&D Systems 4047-AM”, for which, in the data set on complement system (protein(s) preincubated in PBS then added to fresh human serum (FIG. 13B)), the “complement activation in liquid phase” value is given as “could not activate the complement system”.

As for “51003: known RAGE ligand; S100B obtained from Calbiochem [compound 51003]”, the “ability of known RAGE ligands” value with RAGE-C1q binding was “unable to block C1q binding to immobilized sRAGE”.
